Six compounds from US8658692B2, “Method of preparation an inclusion-complex comprising hydrophobic physiological activation material including with cyclodextrin and its use” (Macrocare Tech., Ltd., priority 2007, dated 2014) can be followed below.

Assay [1] concerns human fibroblasts. The experiment in a line: Fibroblast proliferation performance (MTT). It counts as cell-based. The following applies: 4 days culture. As for the experimental part:
In order to evaluate cell proliferation performance of the inclusion-complex according to the present invention, fibroblast proliferation performance was determined.
More particularly, human fibroblasts were cultured in Dulbecco s Modified Eagle's medium (DMEM) containing 2.5% fetal bovine serum (FBS) and the cultured cells were plated in a 96-well microtiter plate at 5,000 cells/well.
Each of the inclusion-complex produced in Example 1 (an inclusion-complex of β-cyclodextrin/geniste with a genistein concentration of 5%), the inclusion-complex produced in Example 2 (an inclusion-complex of hydroxypropyl β-cyclodextrin/genistein with a genistein concentration of 5%) was used as a test sample. On the other hand, genistein, retinol and tocopherol, hydroxypropyl β-cyclodextrin and β-cyclodextrin, respectively, were used as controls. Each of the samples was regulated to have a final concentration of 1 mg/ml and added to the fibroblasts, followed by additional culturing of the fibroblasts for 4 days.
After completing the culture, 50 μl of 0.2% MTT (3-[4,5-dimethylthiazol-2-yl]-2,5-diphenyltetrazolium bromide) solution was added to each well, and then, cultured at 37° C. for 4 hours. The obtained formazan was dissolved in dimethyl sulfoxide (DMSO). The formazan solution was subjected to determination of absorption at 570 nm using a microplate reader.

In assay [2] the test system is human fibroblasts. The experiment in a line: Collagen synthesis / collagen proliferation performance (3H-proline incorporation, RCB). It counts as cell-based. The following applies: for collagen proliferation, result in words (Table 2, FIG. 4): concentrations 10^−6 to 10^−4. As for the experimental part: In order to determine degree of collagen synthesis, human fibroblasts were cultured in a 24-well microtiter plate. The same sample as used for cell proliferation was diluted in a rate of 1/10 in a culture medium and the diluted sample was added to the cultured fibroblasts. The samples used herein were vitamin C, genistein, cyclodextrin, and the inclusion-complexes prepared in Examples 1 and 2.
At 3 days after culture, 0.5 ml of 10% FBS containing DMEM medium was added to each well, followed by adding 10 μCi of L[2,3,4,5-3H]-proline thereto. After 24 hours, the medium and the cells were collected from the well and fed into a 5% trichloroacetic acid (TCA) solution to rinse the product. The rinsed product was plated in two test tubes. 1 unit/μl of Type I collagenase was added to one of the test tubes and cultured at 37° C. for 90 minutes, while the other test tube was stored at 4° C.
After that, adding 0.05 ml of 50% TCA to both the test tubes and leaving the same at 4° C. for 20 minutes, each of the test tubes was subjected to centrifugation at 12,000 rpm for 10 minutes. The resultant supernatant and precipitate were detected using a liquid scintillation counter (LSC) to measure decay per minute (dpm) values. The measured dpm values were used to calculate relative collagen biosynthesis (RCB) values according to the following equation 1: RCB=collagen dpm value/{[([…])×5.4]+collagen dpm value}×100 Equation 1

For the compound tocopherol, the “cell viability dependent on concentration (FIG. 2)” value (from here on “cell viability dependent”) in the assay on human fibroblasts [1] is listed as “increased somewhat in proportion to concentration”.

In the case of `OC[C@H]1O[C@@H]2O[C@H]3[C@H](O)[C@@H](O)[C@@H](O[C@H]4[C@H](O)[C@@H](O)[C@@H](O[C@H]5[C@H](O)[C@@H](O)[C@@H](O[C@H]6[C@H](O)[C@@H](O)[C@@H](O[C@H]7[C@H](O)[C@@H](O)[C@@H](O[C@H]8[C@H](O)[C@@H](O)[C@@H](O[C@H]1[C@H](O)[C@H]2O)O[C@@H]8CO)O[C@@H]7CO)O[C@@H]6CO)O[C@@H]5CO)O[C@@H]4CO)O[C@@H]3CO` [Cyclodextrin, β-cyclodextrin], the Collagen proliferation rate in the assay on human fibroblasts [2] (concentration 10^−4) was determined as 102%; in the assay on human fibroblasts [2] (concentration 10^−5), 101%; with human fibroblasts [2] (concentration 10^−6) it was 102%. Moreover, in the assay on human fibroblasts [2], the “collagen proliferation, result in words (Table 2, FIG. 4)” value (“collagen proliferation, result in words” for short) is on record as “not greatly improved”.

`O=C1O[C@H]([C@@H](O)CO)C(O)=C1O` [Vitamin C]: the Collagen proliferation rate was 98% in the assay on human fibroblasts [2] (concentration 10^−4), 105% with human fibroblasts [2] (concentration 10^−5) and 106% with human fibroblasts [2] (concentration 10^−6). Also, in the assay with human fibroblasts [2], the “collagen proliferation, result in words” value is on record as “decreased as its concentration increased”.

Take `O=c1c(-c2ccc(O)cc2)coc2cc(O)cc(O)c12` [Genistein]: the “cell viability dependent” value in the assay on human fibroblasts [1] was “increased somewhat in proportion to concentration”. Further, the Collagen proliferation rate came out at 115% with human fibroblasts [2] (concentration 10^−4), 112% in the assay on human fibroblasts [2] (concentration 10^−5) and 105% with human fibroblasts [2] (concentration 10^−6). Besides, the “collagen proliferation, result in words” value in the assay on human fibroblasts [2] is listed as “more excellent effects with increased concentration”.

For the compound `CC1=C(/C=C/C(C)=C/C=C/C(C)=C/CO)C(C)(C)CCC1` [retinol], the “cell viability dependent” value with human fibroblasts [1] is “increased somewhat in proportion to concentration”.

As for hydroxypropyl β-cyclodextrin, the results for the Collagen proliferation rate with human fibroblasts [2] (concentration 10^−4), in the assay with human fibroblasts [2] (concentration 10^−5) and in the assay on human fibroblasts [2] (concentration 10^−6) were 104%, 104% and 101%, respectively. Also, the “collagen proliferation, result in words” value in the assay with human fibroblasts [2] is “not greatly improved”.
